Data reported in paper PMC6457909 (Science (New York, N.Y.), 2019).

How the values were obtained:
[1] = Metabolic stability in liver microsomes; conditions: murine liver microsomes, versus earlier compounds
[2] = tested on: H1N1 A/Brisbane/59/2007 HA; format: biochemical, influenza A virus; conditions: pH 5.25
[3] = tested on: H1N1 A/New Caledonia/20/1999 (H1/NCa); format: cell-based, influenza A virus; conditions: read-out: virus neutralization EC50 for H1/NCa
[4] = tested on: H1N1 A/California/07/2009 (H1/Cal); format: cell-based, influenza A virus; conditions: read-out: virus neutralization EC50 for H1/Cal
MDCK cells = assay: Cell toxicity assay
[5] = Metabolic stability in liver microsomes; conditions: human liver microsomes, versus earlier compounds
[6] = tested on: H1N1 A/PR/8/1934 virus in human bronchial epithelial cells (HBEC); assay: Viral neutralization assay in HBEC cultures; format: cell-based; conditions: 96 hours post-infection
In vivo pharmacokinetics = assay: In vivo pharmacokinetics; parameters: species or system mouse; conditions: mice
Kinetic solubility = conditions: versus earlier compounds
[7] = tested on: influenza A group 1 viruses; format: cell-based, influenza A virus
H1N1 A/PR/8/1934 virus [8] = assay: Mouse influenza challenge, sublethal; format: in vivo; conditions: for survival: sublethal challenge (MLD90)
H1N1 A/PR/8/1934 virus [9] = assay: Mouse influenza challenge, lethal; format: in vivo; conditions: for survival at day 21: lethal challenge 25x MLD
H5 HA compared to H1 HA = format: binding, influenza A virus
[10] = tested on: panel of pharmacologically relevant receptors, ion channels, and transporters; assay: In vitro selectivity profiling; format: binding; conditions: 10 µM

## CC(=O)Nc1ccc2oc(-c3ccnc(C(=O)N4CCN([C@H](c5ccccc5)c5nnn(C)n5)CC4)c3)nc2c1 [JNJ4796]
[1]
  intrinsic clearance (in words): significantly reduced
[2]
  inhibition of low pH-induced HA conformational change: dose-dependently prevents pH-induced transition of HA to the post-fusion conformation
[3]
  EC50: 0.038 µM
[4]
  EC50: 0.066 µM
MDCK cells
  cytotoxicity: without cytotoxicity
[5]
  intrinsic clearance (in words): significantly reduced
[6]
  viral titers: dramatically reduced the viral titers
In vivo pharmacokinetics; after oral administration
  half-life (t½): 2.4 h
In vivo pharmacokinetics; oral
  overall bioavailability: 30.0%
In vivo pharmacokinetics; oral administration at 10 mg/kg
  plasma concentration (Cmax): 1152 ng/mL
Kinetic solubility
  aqueous solubility (in words): increased
[7]
  breadth of virus neutralization: heterosubtypic group 1 HA binding and virus neutralization breadth
H1N1 A/PR/8/1934 virus [8]; 5 mg/kg twice daily oral
  survival: 100%
H1N1 A/PR/8/1934 virus [8]; 15 mg/kg twice daily oral
  survival: 100%
H1N1 A/PR/8/1934 virus [8]; sublethal challenge, 15 and 5 mg/kg twice daily
  weight loss: only moderate weight loss effects
H1N1 A/PR/8/1934 virus [9]; 10 mg/kg twice daily oral
  survival at day 21: 100%
H1N1 A/PR/8/1934 virus [9]; 50 mg/kg twice daily oral
  survival at day 21: 100%
H1N1 A/PR/8/1934 virus [9]; lethal challenge, 50 and 10 mg/kg
  morbidity (animal weight loss): only partly alleviated morbidity
H5 HA compared to H1 HA
  decrease of binding affinity to H5 HA compared to H1 HA: ~ 25 fold
[10]
  inhibition of off-targets: does not substantially inhibit any of these potential off-targets
